# From patent US20200255478A1, “NOVEL COMPOUNDS ACTIVATING THE NRF2 PATHWAY” (Almirall, S.A., priority 2017, published 2020)
# Molecular target: Keap1-Maltose Binding Protein (MBP tag) (Homo sapiens, UniProt Q14145)
# Test: Nrf2-Keap1 HTRF (TR-FRET) binding assay: displacement of biotinylated ETGE peptide from Keap1-MBP
# Conditions: not given
# Sequence of Keap1-Maltose Binding Protein (MBP tag) (Q14145 whole entry): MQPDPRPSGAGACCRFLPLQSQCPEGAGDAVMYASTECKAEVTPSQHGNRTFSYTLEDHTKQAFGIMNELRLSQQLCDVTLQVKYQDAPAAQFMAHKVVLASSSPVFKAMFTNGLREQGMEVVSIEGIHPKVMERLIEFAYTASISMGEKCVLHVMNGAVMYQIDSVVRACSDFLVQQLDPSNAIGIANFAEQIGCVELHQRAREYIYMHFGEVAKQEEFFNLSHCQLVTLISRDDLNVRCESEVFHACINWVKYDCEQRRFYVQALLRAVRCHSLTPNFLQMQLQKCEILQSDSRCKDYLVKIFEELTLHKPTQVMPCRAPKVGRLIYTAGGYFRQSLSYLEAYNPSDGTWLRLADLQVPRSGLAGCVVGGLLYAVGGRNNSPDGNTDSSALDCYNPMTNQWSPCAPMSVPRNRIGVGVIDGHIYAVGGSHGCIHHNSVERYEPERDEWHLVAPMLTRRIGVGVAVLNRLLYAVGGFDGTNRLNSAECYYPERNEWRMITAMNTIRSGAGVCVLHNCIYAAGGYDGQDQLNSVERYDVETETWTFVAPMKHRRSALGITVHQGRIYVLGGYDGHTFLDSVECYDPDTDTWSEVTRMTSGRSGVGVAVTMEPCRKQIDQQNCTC
row,Compound,IC50 [nM]
1,"CCCCCCCCCCCC(=O)N[C@H]1C[C@H]2C(=O)N[C@@H](CCC(N)=O)C(=O)N[C@H]3CSCc4ccccc4CSC[C@H](NC(=O)[C@H](CCC(=O)O)NC(=O)CNC(=O)[C@H]([C@@H](C)O)NC(=O)[C@H](CCC(=O)O)NC(=O)[C@@H]4CCCN4C(=O)[C@H](CC(=O)O)NC3=O)C(=O)N[C@@H](CC(C)C)C(=O)N3CCC[C@@H]3C(=O)N2C1 [Example 85, {[&^1Pro((4S)-NH-Lauryl)-Gln-Cys(&^2)-Asp-Pro-Glu-Thr-Gly-Glu-Cys(&^3)-Leu-D-Pro&^1][&^2(1,2-phenylenediyl)dimethylene&^3]}]",< 1
2,"CC/C=C\C/C=C\C/C=C\CCCCCCCC(=O)N[C@H]1C[C@H]2C(=O)N[C@@H](CCC(N)=O)C(=O)N[C@H]3CSCc4ccccc4CSC[C@H](NC(=O)[C@H](CCC(=O)O)NC(=O)CNC(=O)[C@H]([C@@H](C)O)NC(=O)[C@H](CCC(=O)O)NC(=O)[C@@H]4CCCN4C(=O)[C@H](CC(=O)O)NC3=O)C(=O)N[C@@H](CC(C)C)C(=O)N3CCC[C@@H]3C(=O)N2C1 [Example 86, {[&^1Pro((4S)-NH-α-linolenyl)-Gln-Cys(&^2)-Asp-Pro-Glu-Thr-Gly-Glu-Cys(&^3)-Leu-D-Pro&^1][&^2(1,2-phenylenediyl)dimethylene&^3]}]",< 1
3,"CCCCCCCC/C=C/CCCCCCCC(=O)N[C@H]1C[C@H]2C(=O)N[C@@H](CCC(N)=O)C(=O)N[C@H]3CSCc4ccccc4CSC[C@H](NC(=O)[C@H](CCC(=O)O)NC(=O)CNC(=O)[C@H]([C@@H](C)O)NC(=O)[C@H](CCC(=O)O)NC(=O)[C@@H]4CCCN4C(=O)[C@H](CC(=O)O)NC3=O)C(=O)N[C@@H](CC(C)C)C(=O)N3CCC[C@@H]3C(=O)N2C1 [Example 87, {[&^1Pro((4S)-NH-elaidyl)-Gln-Cys(&^2)-Asp-Pro-Glu-Thr-Gly-Glu-Cys(&^3)-Leu-D-Pro&^1][&^2(1,2-phenylenediyl)dimethylene&^3]}]",1 to 100
4,"CCCCCCCC/C=C\CCCCCCCC(=O)N[C@H]1C[C@H]2C(=O)N[C@@H](CCC(N)=O)C(=O)N[C@H]3CSCc4ccccc4CSC[C@H](NC(=O)[C@H](CCC(=O)O)NC(=O)CNC(=O)[C@H]([C@@H](C)O)NC(=O)[C@H](CCC(=O)O)NC(=O)[C@@H]4CCCN4C(=O)[C@H](CC(=O)O)NC3=O)C(=O)N[C@@H](CC(C)C)C(=O)N3CCC[C@@H]3C(=O)N2C1 [Example 88, {[&^1Pro((4S)-NH-oleyl)-Gln-Cys(&^2)-Asp-Pro-Glu-Thr-Gly-Glu-Cys(&^3)-Leu-D-Pro&^1][&^2(1,2-phenylenediyl)dimethylene&^3]}]",< 1
5,"CCCCCCCCCCCCCCCCCCCCCC(=O)N[C@H]1C[C@H]2C(=O)N[C@@H](CCC(N)=O)C(=O)N[C@H]3CSCc4ccccc4CSC[C@H](NC(=O)[C@H](CCC(=O)O)NC(=O)CNC(=O)[C@H]([C@@H](C)O)NC(=O)[C@H](CCC(=O)O)NC(=O)[C@@H]4CCCN4C(=O)[C@H](CC(=O)O)NC3=O)C(=O)N[C@@H](CC(C)C)C(=O)N3CCC[C@@H]3C(=O)N2C1 [Example 89, {[&^1Pro((4S)-NH-behenyl)-Gln-Cys(&^2)-Asp-Pro-Glu-Thr-Gly-Glu-Cys(&3)-Leu-D-Pro&^1][&^2(1,2-phenylenediyl)dimethylene&^3]}]",< 1
6,"CCCCCCCCCCCCCCCCCCCC(=O)N[C@H]1C[C@H]2C(=O)N[C@@H](CCC(N)=O)C(=O)N[C@H]3CSCc4ccccc4CSC[C@H](NC(=O)[C@H](CCC(=O)O)NC(=O)CNC(=O)[C@H]([C@@H](C)O)NC(=O)[C@H](CCC(=O)O)NC(=O)[C@@H]4CCCN4C(=O)[C@H](CC(=O)O)NC3=O)C(=O)N[C@@H](CC(C)C)C(=O)N3CCC[C@@H]3C(=O)N2C1 [Example 90, {[&^1Pro((4S)-NH-arachidyl)-Gln-Cys(&^2)-Asp-Pro-Glu-Thr-Gly-Glu-Cys(&^3)-Leu-D-Pro&^1][&^2(1,2-phenylenediyl)dimethylene&^3]}]",< 1
7,"CCCCCCCCCCCCCCCCCC(=O)NCCCC[C@@H]1NC(=O)[C@H]2CCCN2C(=O)[C@H](CC(C)C)NC(=O)[C@@H]2CSCc3ccccc3CSC[C@H](NC(=O)[C@H](CCC(N)=O)NC1=O)C(=O)N[C@@H](CC(=O)O)C(=O)N1CCC[C@H]1C(=O)N[C@@H](CCC(=O)O)C(=O)N[C@@H]([C@@H](C)O)C(=O)NCC(=O)N[C@@H](CCC(=O)O)C(=O)N2 [Example 91, {[&^1Lys(N^6-Stearyl)-Gln-Cys(&^2)-Asp-Pro-Glu-Thr-Gly-Glu-Cys(&^3)-Leu-D-Pro&^1][&^2(1,2-phenylenediyl)dimethylene&^3]}]",< 1
8,"CCCCCCCCCCCCCCCCCCCC(=O)N[C@H]1C[C@H]2C(=O)N[C@@H](CCC(N)=O)C(=O)N[C@H]3CSCC4(COC4)CSC[C@H](NC(=O)[C@H](CCC(=O)O)NC(=O)CNC(=O)[C@H]([C@@H](C)O)NC(=O)[C@H](CCC(=O)O)NC(=O)[C@@H]4CCCN4C(=O)[C@H](CC(=O)O)NC3=O)C(=O)N[C@@H](CC(C)C)C(=O)N3CCC[C@@H]3C(=O)N2C1 [Example 95, {[&^1Pro((4S)-NH-Arachidyl)-Gln-Cys(&^2)-Asp-Pro-Glu-Thr-Gly-Glu-Cys(&^3)-Leu-D-Pro&^1][&^2(3,3-oxetanediyl)dimethylene&^3]}]",< 1
9,"CCCCCCCCCCCCCCCCCCC(=O)N[C@H]1C[C@H]2C(=O)N[C@@H](CCC(N)=O)C(=O)N[C@H]3CSCc4ccccc4CSC[C@H](NC(=O)[C@H](CCC(=O)O)NC(=O)CNC(=O)[C@H]([C@@H](C)O)NC(=O)[C@H](CCC(=O)O)NC(=O)[C@@H]4CCCN4C(=O)[C@H](CC(=O)O)NC3=O)C(=O)N[C@@H](CC(C)C)C(=O)N3CCC[C@@H]3C(=O)N2C1 [Example 98, {[&^1Pro((4S)-NH-Nonadecanoyl)-Gln-Cys(&^2)-Asp-Pro-Glu-Thr-Gly-Glu-Cys(&^3)-Leu-D-Pro&^1][&^2(1,2-phenylenediyl)dimethylene&^3]}]",< 1
10,"CCCCCCCCCCCCCCCCCC(=O)N[C@H]1C[C@H]2C(=O)N[C@@H](CCC(N)=O)C(=O)N[C@H]3CSCC4(CCOCC4)CSC[C@H](NC(=O)[C@H](CCC(=O)O)NC(=O)CNC(=O)[C@H]([C@@H](C)O)NC(=O)[C@H](CCC(=O)O)NC(=O)[C@@H]4CCCN4C(=O)[C@H](CC(=O)O)NC3=O)C(=O)N[C@@H](CC(C)C)C(=O)N3CCC[C@@H]3C(=O)N2C1 [Example 100, {[&^1Pro((4S)-NH-Stearyl)-Gln-Cys(&^2)-Asp-Pro-Glu-Thr-Gly-Glu-Cys(&^3)-Leu-D-Pro&^1][&^2(tetrahydro-2H-pyran-4,4-diyl)dimethylene&^3]}]",1 to 100

# Same assay, conditions: HTRF (TR-FRET); displacement of ETGE-biotin from Keap1-MBP; values banded into grades; read-out: Binding (IC50) ETGE-Keap1
row,Compound,IC50 [nM]
1,"CCCCCCCCCCCCCCCCCC(=O)N[C@H]1CCCCNC(=O)[C@H]2CCCN2C(=O)[C@H](CC(C)C)NC(=O)[C@@H]2CSCc3ccccc3CSC[C@H](NC(=O)[C@H](CCC(N)=O)NC1=O)C(=O)N[C@@H](CC(=O)O)C(=O)N1CCC[C@H]1C(=O)N[C@@H](CCC(=O)O)C(=O)N[C@@H]([C@@H](C)O)C(=O)NCC(=O)N[C@@H](CCC(=O)O)C(=O)N2 [Example 92, {[Stearyl-Lys(&^1)-Gln-Cys(&^2)-Asp-Pro-Glu-Thr-Gly-Glu-Cys(&^3)-Leu-D-Pro&^1][&^2(1,2-phenylenediyl)dimethylene&^3]}]",< 1
2,"CCCCCCCCCCCCCCCCCC(=O)N[C@H]1C[C@H]2C(=O)N[C@@H](CCC(N)=O)C(=O)N[C@H]3CSCc4cccc(c4)CSC[C@H](NC(=O)[C@H](CCC(=O)O)NC(=O)CNC(=O)[C@H]([C@@H](C)O)NC(=O)[C@H](CCC(=O)O)NC(=O)[C@@H]4CSCN4C(=O)[C@H](CC(=O)O)NC3=O)C(=O)N[C@@H](CC(C)C)C(=O)N3CCC[C@@H]3C(=O)N2C1 [Example 96, {[&^1Pro((4S)-NH-Stearyl)-Gln-Cys(&^2)-Asp-Thz-Glu-Thr-Gly-Glu-Cys(&^3)-Leu-D-Pro&^1][&^2(1,3-phenylenediyl)dimethylene&^3]}]",< 1
3,"CCCCCCCCCCCCCCCCCC(=O)N[C@H]1C[C@H]2C(=O)N[C@@H](CCC(N)=O)C(=O)N[C@H]3CSCC4(COC4)CSC[C@H](NC(=O)[C@H](CCC(=O)O)NC(=O)CNC(=O)[C@H]([C@@H](C)O)NC(=O)[C@H](CCC(=O)O)NC(=O)[C@@H]4CSCN4C(=O)[C@H](CC(=O)O)NC3=O)C(=O)N[C@@H](CC(C)C)C(=O)N3CCC[C@@H]3C(=O)N2C1 [Example 97, {[&^1Pro((4S)-NH-Stearyl)-Gln-Cys(&^2)-Asp-Thz-Glu-Thr-Gly-Glu-Cys(&^3)-Leu-D-Pro&^1][&^2(3,3-oxetanediyl)dimethylene&^3]}]",< 1
4,"CCCCCCCCCCCCCCCCCC(=O)NCCC(=O)N[C@@H](CC(C)C)C(=O)N[C@@H](CC(C)C)C(=O)N[C@H]1CSCC2(COC2)CSC[C@@H](C(=O)N[C@@H](CC(C)C)C(=O)N[C@@H](CC(C)C)C(N)=O)NC(=O)[C@H](CCC(=O)O)NC(=O)CNC(=O)[C@H]([C@@H](C)O)NC(=O)[C@H](CCC(=O)O)NC(=O)[C@@H]2CCCN2C(=O)[C@H](CC(=O)O)NC1=O [Example 99, {[Stearyl-βAla-Leu-Leu-Cys(&^1)-Asp-Pro-Glu-Thr-Gly-Glu-Cys(&^2)-Leu-Leu-NH2][&^1(3,3-oxetanediyl)dimethylene&^2]}]",< 1
